Conditions: Liquid, Ebulliometric method (Recirculating still)

CCCCCOCCOCCOCCCCC [1-(2-(2-(pentyloxy)ethoxy)ethoxy)pentane]
Conditions	vapor or sublimation pressure [kPa]
427.5 K	2
437.5 K	3
444.6 K	4
450.3 K	5
455.1 K	6
459.3 K	7
461.2 K	7.5
463 K	8
466.2 K	9
469.1 K	10
471.7 K	11
474.1 K	12
476.3 K	13
478.6 K	14
480.7 K	15
488.8 K	20
495.7 K	25

Source: the NIST ThermoML archive (doi:10.1016/j.fluid.2012.07.027)
